Source: patent publication US20100028312A1, “Stably transformed bone marrow-derived cells and uses thereof” (Caritas St. Elizabeth Medical Center of Boston Inc, priority 2005, published 2010)

Legend:
EPC [1] = assay: β-galactosidase activity in EPC transduced with type 2 AAV, with or without genistein; assay type: cell-based, rats
Protocol: (§1) EPC Culture and Expansion. Peripheral blood (about 1 ml) was obtained from the hearts of rats and mononuclear cells were isolated by density gradient centrifugation and cultured for 5 days. EPC were expanded ex vivo as described above.
(§2) Transduction of EPC. EPC cultures were infected with type 2 AAV-lacZ (also referred to herein as AAV-lacZ(+)) (control) vectors or AAV-IGF-1 vectors, prepared as described above, using approximately 3000 particles/cell. Some cultures were treated for about 1 hour with genistein, a specific inhibitor of cellular protein tyrosine kinases, (2-40 μM, preferably about 20 μM). Control vectors used in the genistein experiments also included AAV vector without lacZ, designated AAVlacZ(−).
AAV-IGF-1 mRNA expression in EPCs was determined by RT-PCR assay using primers specific for human IGF-1 sequences. The primer sequences used in these studies are as shown:
To determine whether efficiency of rAAV transduction of cultured EPC can be enhanced by inhibiting protein tyrosine kinases in these cells, some EPC cultures were pretreated with genestein prior to infection with rAAV, as described above. Referring to FIG. 5, in cultures infected with AAVlacZ(−) control vector, β-gal activity was negligible. In cultures infected with AAVlacZ(+) without or with pretreatment with 20 μM genistein, β-gal activity was 3.35 vs. 12.09, respectively. […]

EPC [2] = assay: RT-PCR assay of AAV-IGF-1 mRNA expression in transduced EPC, with or without genistein; assay type: cell-based, rats
Protocol: as §1, §2
One week after infection, the cells were analyzed for β-galactosidase activity. AAV-IGF-1 mRNA expression in EPCs was determined by RT-PCR assay using primers specific for human IGF-1 sequences. The primer sequences used in these studies are as shown: […]

BM cells = conditions: 100 ng intraperitoneal for 3 consecutive days; 2 months after BMT; versus control BMT
Protocol: To examine the effect of VEGF on BM cell mobilization, we injected the mice with 100 ng VEGF-C intaperitoneally for 3 days.
Freshly isolated BM cells or PB cells were subjected to FluoReporter lacZ Flow Cytometry Kit (Molecular Probes, OR) or stained with acetylated low-density lipoprotein (LDL) labeled with 1′-dioctadecyl1-1,3,3,3′-tetramethyl-indocarbocyanine; Di-I (Biomedical Technologies Inc, MA) as described previously [13]. Analysis was performed on a FACStar flow cytometer (Becton Dickinson) and Cell Quest Software counting 10,000 events per sample.
Accordingly, we treated recipient mice with VEGF protein and analyzed the kinetics of mobilization of BM cells by FACS analysis.
The means±S.E. from 9 independent experiments are presented. *, p<0.01, **, p<0.05 versus control BMT (FIG. 2A).

Row | Molecule | increase of lacZ activity by genistein (EPC [1]; 20 μM genistein versus no genistein, AAVlacZ(+)) | β-gal activity (EPC [1]; 14 days after transduction, AAVlacZ(+)-infected EPC pretreated with 20 μM genistein) | AAV-mediated IGF-1 expression (mRNA, RT-PCR) (EPC [2]; AAV-IGF-1 transduced EPC following treatment with genistein) | increase of IGF-1 expression from AAV by genistein (EPC [2]; genistein versus no genistein) | β-gal expression in both PB and BM of recipient mice (BM cells)
1 | O=c1c(-c2ccc(O)cc2)coc2cc(O)cc(O)c12 [genistein] | approximately four-fold | 12.09 | 206.1 units | about seven-fold | –
2 | VEGF | – | – | – | – | significantly increased
